Measurements from patent US20220324835A1 (Nurix Therapeutics, Inc., priority 2018, published 2022).

Key:
Cbl-b [1] = target: T1, Cbl-b (Homo sapiens, UniProt Q13191); assay: Cbl-b inhibition assay (Cbl-b activity assay, FRET, Biological Example 1; 100 mM NaCl, 60 nM Src kinase); type: biochemical; conditions: upper bound stated in text lists; read-out: IC50 values in the Cbl-b inhibition assay of Biological Example 1
Procedure, shortened: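 Inhibitor activity is measured as reduced terbium-to-fluorescein FRET between streptavidin-terbium on biotinylated Cbl-b and Bodipy-fluorescein ubiquitin carried by an irreversible UbcH5B-Ub conjugate, binding of which depends on Src phosphorylation of Cbl-b.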

T-cell = assay: CD25 cell surface staining on T-cells co-stimulated with anti-CD3 and anti-CD28 antibody (Biological Example 2); type: cell-based, human; conditions: Homo sapiens, T-cell, primary human total T-cells, baseline = anti-CD3/anti-CD28 stimulated cells without inhibitor, read-out: CD25 staining, Anti-CD3/Anti-CD28 stimulation, fold change over baseline; for fold induction at 0.3 µM: 0.3 μM compound; for fold induction at 1 µM: 1 μM compound; for fold induction at 4 µM: 4 μM compound
Procedure, shortened: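 No assay protocol given; T-cells stimulated with anti-CD3 alone or anti-CD3 plus anti-CD28, with or without Cbl-b inhibitor. Activation read as IL-2 secretion or CD25 surface staining, expressed as fold over baseline from uninhibited cells […].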

Cbl-b [2] = target: T1, Cbl-b; assay: Cbl-b activity assay (Cbl-b inhibition assay), TR-FRET of Cbl-b interaction with UbcH5B-Ub; type: biochemical; conditions: assay buffer with 100 mM NaCl, 60 nM Src kinase; read-out: Cbl-b activity IC50
Procedure, shortened: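 TR-FRET readout of Cbl-b binding to Bodipy-fluorescein N-terminally labeled Ub conjugated to UbcH5B C85K, measured with compound present. After compound incubation, 60 nM Src kinase with 1 mM ATP and 5 mM MgCl2 (final) was added for 1.5 h, then a further 1 h incubation; asterisked values used 50 mM NaCl buffer and 30 nM Src.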

T1 sequence (Q13191 36-427): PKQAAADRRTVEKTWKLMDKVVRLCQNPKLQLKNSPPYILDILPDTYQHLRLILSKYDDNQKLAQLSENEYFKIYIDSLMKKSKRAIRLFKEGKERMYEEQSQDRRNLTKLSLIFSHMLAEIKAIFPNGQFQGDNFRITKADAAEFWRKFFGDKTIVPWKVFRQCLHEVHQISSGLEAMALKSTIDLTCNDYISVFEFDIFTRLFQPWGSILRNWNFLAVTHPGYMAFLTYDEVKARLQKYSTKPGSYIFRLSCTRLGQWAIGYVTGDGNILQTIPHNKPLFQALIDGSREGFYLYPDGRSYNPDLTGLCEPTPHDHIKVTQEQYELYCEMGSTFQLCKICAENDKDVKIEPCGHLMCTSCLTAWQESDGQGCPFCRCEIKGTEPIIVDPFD

Row | Structure (SMILES) | IC50 (Cbl-b [1]) | fold induction at 0.3 µM (T-cell) | fold induction at 1 µM (T-cell) | fold induction at 4 µM (T-cell) | IC50 (Cbl-b [2])
1 | Cn1cnnc1CC1(c2cccc(N3Cc4c(cc(CN5CC[C@H](C#N)C5)cc4C(F)(F)F)C3=O)c2)COC1 [Compound 422, (S)-1-((2-(3-(3-((4-methyl-4H-1,2,4-triazol-3-yl)methyl)oxetan-3-yl)phenyl)-3-oxo-7-(trifluoromethyl)isoindolin-5-yl)methyl)pyrrolidine-3-carbonitrile] | ≤ 0.1 µM | 1.31 to 1.5 | 1.31 to 1.5 | 1.31 to 1.5 | < 0.1 µM
2 | C[C@H](c1cc2c(c(C(F)(F)F)c1)CN(c1cccc(C3(Cc4nncn4C)COC3)c1)C2=O)N1CCC(C)(F)CC1 [Example 553b, (R)-6-(1-(4-fluoro-4-methylpiperidin-1-yl)ethyl)-2-(3-(3-((4-methyl-4H-1,2,4-triazol-3-yl)methyl)oxetan-3-yl)phenyl)-4-(trifluoromethyl)isoindolin-1-one] | ≤ 0.1 µM | > 1.76 | > 1.76 |  | < 0.1 µM
3 | C[C@H](Cc1nncn1C)c1cccc(N2Cc3c(cc(CN4CC[C@H](F)C4)cc3C(F)(F)F)C2=O)c1 [Compound 399, 6-(((S)-3-fluoropyrrolidin-1-yl)methyl)-2-(3-((R)-1-(4-methyl-4H-1,2,4-triazol-3-yl)propan-2-yl)phenyl)-4-(trifluoromethyl)isoindolin-1-one] | ≤ 0.1 µM | 1.01 to 1.3 | 1.31 to 1.5 | 1.31 to 1.5 | < 0.1 µM
4 | Cn1cnnc1CC1(c2cccc(N3Cc4c(cc(CN5CC[C@H](F)C5)cc4C(F)(F)F)C3=O)c2)COC1 [Compound 410, 6-{[(3S)-3-fluoropyrrolidin-1-yl]methyl}-2-(3-{3-[(4-methyl-4H-1,2,4-triazol-3-yl)methyl]oxetan-3-yl}phenyl)-4-(trifluoromethyl)-2,3-dihydro-1H-isoindol-1-one] | ≤ 0.1 µM | 1.31 to 1.5 | 1.51 to 1.75 | 1.51 to 1.75 | < 0.1 µM
5 | C[C@@H](c1cc2c(c(C(F)(F)F)c1)CN(c1cccc(C3(Cc4nncn4C)COC3)c1)C2=O)N1C[C@H]2C[C@H]2C1 [Compound 541a, 6-((1S)-1-(3-azabicyclo[3.1.0]hexan-3-yl)ethyl)-2-(3-(3-((4-methyl-4H-1,2,4-triazol-3-yl)methyl)oxetan-3-yl)phenyl)-4-(trifluoromethyl)isoindolin-1-one] | ≤ 0.1 µM | 1.31 to 1.5 | 1.31 to 1.5 |  | < 0.1 µM
6 | Cn1cnnc1CC1(c2cccc(N3Cc4c(cc(CN5CC[C@@H](C#N)C5)cc4C(F)(F)F)C3=O)c2)COC1 [Compound 421, (R)-1-((2-(3-(3-((4-methyl-4H-1,2,4-triazol-3-yl)methyl)oxetan-3-yl)phenyl)-3-oxo-7-(trifluoromethyl)isoindolin-5-yl)methyl)pyrrolidine-3-carbonitrile] | ≤ 0.1 µM | 1.01 to 1.3 | 1.01 to 1.3 | 1.31 to 1.5 | < 0.1 µM
7 | C[C@H](Cc1nncn1C)c1cccc(NC(=O)c2cc3cc(N4CCNCC4)ccc3cn2)c1 [Compound 472, N-{3-[(2R)-1-(4-methyl-4H-1,2,4-triazol-3-yl)propan-2-yl]phenyl}-6-(piperazin-1-yl)isoquinoline-3-carboxamide] | ≤ 0.1 µM | 1.01 to 1.3 | 1.01 to 1.3 | 1.01 to 1.3 | < 0.1 µM
8 | Cn1cnnc1CC1(c2cccc(N3Cc4c(cc(CN5CC(F)C5)cc4C(F)(F)F)C3=O)c2)COC1 [Compound 415, 6-((3-fluoroazetidin-1-yl)methyl)-2-(3-(3-((4-methyl-4H-1,2,4-triazol-3-yl)methyl)oxetan-3-yl)phenyl)-4-(trifluoromethyl)isoindolin-1-one] | ≤ 0.1 µM | 1.31 to 1.5 | 1.31 to 1.5 | 1.51 to 1.75 | < 0.1 µM
9 | Cn1cnnc1CC1(c2cccc(NC(=O)c3cc(CN4CC[C@H](F)C4)cc(C4CC4)n3)c2)COC1 [Compound 496, 6-cyclopropyl-4-{[(3S)-3-fluoropyrrolidin-1-yl]methyl}-N-(3-{3-[(4-methyl-1,2,4-triazol-3-yl)methyl]oxetan-3-yl}phenyl)pyridine-2-carboxamide] | ≤ 0.1 µM | 1.51 to 1.75 | 1.51 to 1.75 |  | < 0.1 µM
10 | C[C@@H](c1cc2c(c(C(F)(F)F)c1)CN(c1cccc(C3(Cc4nncn4C)COC3)c1)C2=O)N1CC[C@H](F)C1 [Compound 412, 6-((S)-1-((S)-3-fluoropyrrolidin-1-yl)ethyl)-2-(3-(3-((4-methyl-4H-1,2,4-triazol-3-yl)methyl)oxetan-3-yl)phenyl)-4-(trifluoromethyl)isoindolin-1-one] | ≤ 0.1 µM | 1.31 to 1.5 | 1.51 to 1.75 | 1.51 to 1.75 | < 0.1 µM
11 | C[C@@H](c1cc2c(c(C(F)(F)F)c1)CN(c1cccc(C3(Cc4nncn4C)COC3)c1)C2=O)N1CCC(C)(F)CC1 [Example 553a, (S)-6-(1-(4-fluoro-4-methylpiperidin-1-yl)ethyl)-2-(3-(3-((4-methyl-4H-1,2,4-triazol-3-yl)methyl)oxetan-3-yl)phenyl)-4-(trifluoromethyl)isoindolin-1-one] | ≤ 0.1 µM | > 1.76 | > 1.76 |  | < 0.1 µM
12 | Cn1cnnc1C(F)(F)[C@](C)(F)c1cccc(N2Cc3c(cc(CN4CC[C@@H](C#N)C4)cc3C(F)(F)F)C2=O)c1 [Compound 455, (R)-1-((3-oxo-2-(3-((R)-1,1,2-trifluoro-1-(4-methyl-4H-1,2,4-triazol-3-yl)propan-2-yl)phenyl)-7-(trifluoromethyl)isoindolin-5-yl)methyl)pyrrolidine-3-carbonitrile] | ≤ 0.1 µM | 1.01 to 1.3 | 1.31 to 1.5 | 1.31 to 1.5 | < 0.1 µM
13 | Cn1cnnc1CC1(c2cccc(N3Cc4c(cc(CN5CCC6(CC6)C5)cc4C(F)(F)F)C3=O)c2)COC1 [Compound 520, 6-((5-azaspiro[2.4]heptan-5-yl)methyl)-2-(3-(3-((4-methyl-4H-1,2,4-triazol-3-yl)methyl)oxetan-3-yl)phenyl)-4-(trifluoromethyl)isoindolin-1-one] | ≤ 0.1 µM | 1.31 to 1.5 | 1.31 to 1.5 |  | < 0.1 µM
14 | C[C@H](Cc1nncn1C)c1cccc(N2Cc3c(cc(CN4CC(C)(O)C4)cc3C(F)(F)F)C2=O)c1 [Compound 397] | ≤ 0.1 µM | 1.01 to 1.3 | 1.31 to 1.5 | 1.31 to 1.5 | < 0.1 µM
15 | Cn1cnnc1C(F)(F)[C@](C)(F)c1cccc(N2Cc3c(cc(CN4CCC(F)(F)C4)cc3C(F)(F)F)C2=O)c1 [Compound 448, (R)-6-((3,3-difluoropyrrolidin-1-yl)methyl)-2-(3-(1,1,2-trifluoro-1-(4-methyl-4H-1,2,4-triazol-3-yl)propan-2-yl)phenyl)-4-(trifluoromethyl)isoindolin-1-one] | ≤ 0.1 µM | 1.01 to 1.3 | 1.01 to 1.3 | 1.31 to 1.5 | < 0.1 µM
16 | Cn1cnnc1C(F)(F)[C@](C)(F)c1cccc(N2Cc3c(cc(C(=O)N4CC[C@H](O)C4)cc3C(F)(F)F)C2=O)c1 [Compound 438, 6-((S)-3-hydroxypyrrolidine-1-carbonyl)-2-(3-((R)-1,1,2-trifluoro-1-(4-methyl-4H-1,2,4-triazol-3-yl)propan-2-yl)phenyl)-4-(trifluoromethyl)isoindolin-1-one] | ≤ 0.1 µM | 1.01 to 1.3 | 1.01 to 1.3 | 1.31 to 1.5 | < 0.1 µM
17 | C[C@H](Cc1nncn1C)c1cccc(N2Cc3c(cc(CN4CC(O)C4)cc3C(F)(F)F)C2=O)c1 [Compound 393, (R)-6-((3-hydroxyazetidin-1-yl)methyl)-2-(3-(1-(4-methyl-4H-1,2,4-triazol-3-yl)propan-2-yl)phenyl)-4-(trifluoromethyl)isoindolin-1-one] | ≤ 0.1 µM | 1.01 to 1.3 | 1.31 to 1.5 | 1.31 to 1.5 | < 0.1 µM
18 | C[C@H](c1cc2c(c(C(F)(F)F)c1)CN(c1cccc(C3(Cc4nncn4C)COC3)c1)C2=O)N1CC[C@H](F)C1 [Compound 413, 6-((R)-1-((S)-3-fluoropyrrolidin-1-yl)ethyl)-2-(3-(3-((4-methyl-4H-1,2,4-triazol-3-yl)methyl)oxetan-3-yl)phenyl)-4-(trifluoromethyl)isoindolin-1-one] | ≤ 0.1 µM | 1.31 to 1.5 | 1.51 to 1.75 | 1.31 to 1.5 | < 0.1 µM
